Assay: excess molar enthalpy (molar enthalpy of mixing); xn = mol fraction of the nth substance listed
Conditions: 101 kPa, Liquid, Calvet calorimetry

CNCCO [2-(methylamino)ethanol] + O
Conditions	excess molar enthalpy [kJ/mol]
298.15 K, x1 = 0.0302	-0.53
298.15 K, x1 = 0.0514	-0.902
298.15 K, x1 = 0.0695	-1.16
298.15 K, x1 = 0.1002	-1.48
298.15 K, x1 = 0.1485	-1.92
298.15 K, x1 = 0.1992	-2.24
298.15 K, x1 = 0.3021	-2.67
298.15 K, x1 = 0.3471	-2.75
298.15 K, x1 = 0.3996	-2.73
298.15 K, x1 = 0.4471	-2.67
298.15 K, x1 = 0.5017	-2.51
298.15 K, x1 = 0.5992	-2.15
298.15 K, x1 = 0.696	-1.71
298.15 K, x1 = 0.7988	-1.22
298.15 K, x1 = 0.8939	-0.688
313.15 K, x1 = 0.031	-0.535
313.15 K, x1 = 0.05	-0.902
313.15 K, x1 = 0.0704	-1.18
313.15 K, x1 = 0.1011	-1.59
313.15 K, x1 = 0.1488	-1.99
313.15 K, x1 = 0.2003	-2.3
313.15 K, x1 = 0.2983	-2.64
313.15 K, x1 = 0.3491	-2.68
313.15 K, x1 = 0.3986	-2.67
313.15 K, x1 = 0.5035	-2.51
313.15 K, x1 = 0.5833	-2.29
313.15 K, x1 = 0.686	-1.92
313.15 K, x1 = 0.8053	-1.28
313.15 K, x1 = 0.8956	-0.679
323.15 K, x1 = 0.0299	-0.742
323.15 K, x1 = 0.0501	-1.11
323.15 K, x1 = 0.07	-1.36
323.15 K, x1 = 0.1008	-1.66
323.15 K, x1 = 0.1504	-1.98
323.15 K, x1 = 0.2004	-2.22
323.15 K, x1 = 0.2985	-2.57
323.15 K, x1 = 0.3492	-2.64
323.15 K, x1 = 0.4023	-2.65
323.15 K, x1 = 0.5108	-2.48
323.15 K, x1 = 0.6095	-2.14
323.15 K, x1 = 0.6956	-1.73
323.15 K, x1 = 0.8039	-1.17
323.15 K, x1 = 0.8815	-0.749

CC(O)CN (stereo not drawn) [1-amino-2-propanol] + O
Conditions	excess molar enthalpy [kJ/mol]
298.15 K, x1 = 0.03	-0.497
298.15 K, x1 = 0.0501	-0.777
298.15 K, x1 = 0.0697	-1.01
298.15 K, x1 = 0.1002	-1.36
298.15 K, x1 = 0.1505	-1.75
298.15 K, x1 = 0.2012	-2.04
298.15 K, x1 = 0.2994	-2.39
298.15 K, x1 = 0.3496	-2.48
298.15 K, x1 = 0.3993	-2.48
298.15 K, x1 = 0.4465	-2.42
298.15 K, x1 = 0.494	-2.32
298.15 K, x1 = 0.6033	-2.01
298.15 K, x1 = 0.7155	-1.53
298.15 K, x1 = 0.7954	-1.13
298.15 K, x1 = 0.8847	-0.725
313.15 K, x1 = 0.0304	-0.56
313.15 K, x1 = 0.0701	-1.06
313.15 K, x1 = 0.1001	-1.36
313.15 K, x1 = 0.15	-1.76
313.15 K, x1 = 0.1999	-2.05
313.15 K, x1 = 0.3021	-2.44
313.15 K, x1 = 0.352	-2.52
313.15 K, x1 = 0.4015	-2.5
313.15 K, x1 = 0.5022	-2.33
313.15 K, x1 = 0.591	-2.04
313.15 K, x1 = 0.692	-1.64
313.15 K, x1 = 0.7864	-1.18
313.15 K, x1 = 0.8808	-0.73
323.15 K, x1 = 0.0301	-0.478
323.15 K, x1 = 0.05	-0.714
323.15 K, x1 = 0.0705	-1.02
323.15 K, x1 = 0.0999	-1.29
323.15 K, x1 = 0.1507	-1.68
323.15 K, x1 = 0.1993	-1.98
323.15 K, x1 = 0.2999	-2.3
323.15 K, x1 = 0.3533	-2.42
323.15 K, x1 = 0.4045	-2.45
323.15 K, x1 = 0.507	-2.32
323.15 K, x1 = 0.5849	-2.08
323.15 K, x1 = 0.6741	-1.76
323.15 K, x1 = 0.8125	-1.09
323.15 K, x1 = 0.9073	-0.601

NCCCO [3-amino-1-propanol] + O
Conditions	excess molar enthalpy [kJ/mol]
298.15 K, x1 = 0.0299	-0.404
298.15 K, x1 = 0.0705	-0.927
298.15 K, x1 = 0.1203	-1.52
298.15 K, x1 = 0.2	-2.13
298.15 K, x1 = 0.2982	-2.5
298.15 K, x1 = 0.3452	-2.6
298.15 K, x1 = 0.4067	-2.61
298.15 K, x1 = 0.4989	-2.46
298.15 K, x1 = 0.593	-2.17
298.15 K, x1 = 0.7515	-1.53
298.15 K, x1 = 0.8969	-0.711
313.15 K, x1 = 0.0297	-0.483
313.15 K, x1 = 0.0702	-1.03
313.15 K, x1 = 0.12	-1.57
313.15 K, x1 = 0.2007	-2.11
313.15 K, x1 = 0.3015	-2.54
313.15 K, x1 = 0.3458	-2.63
313.15 K, x1 = 0.3982	-2.65
313.15 K, x1 = 0.5034	-2.5
313.15 K, x1 = 0.6045	-2.12
313.15 K, x1 = 0.7564	-1.38
313.15 K, x1 = 0.9333	-0.481
323.15 K, x1 = 0.0298	-0.643
323.15 K, x1 = 0.0718	-1.21
323.15 K, x1 = 0.1192	-1.66
323.15 K, x1 = 0.1996	-2.14
323.15 K, x1 = 0.3018	-2.54
323.15 K, x1 = 0.3493	-2.65
323.15 K, x1 = 0.3947	-2.67
323.15 K, x1 = 0.5038	-2.5
323.15 K, x1 = 0.605	-2.16
323.15 K, x1 = 0.7594	-1.42
323.15 K, x1 = 0.8801	-0.753

OCCNCCO [diethanolamine] + O
298.15 K
Conditions	excess molar enthalpy [kJ/mol]
x1 = 0.0553	-0.685
x1 = 0.0732	-0.896
x1 = 0.1001	-1.14
x1 = 0.2005	-1.78
x1 = 0.2943	-2.08
x1 = 0.34	-2.13
x1 = 0.4007	-2.08
x1 = 0.4969	-1.92
x1 = 0.5945	-1.61
x1 = 0.6597	-1.39
x1 = 0.7421	-1.09
x1 = 0.8312	-0.721
x1 = 0.9283	-0.302

CN(CCO)CCO [N-methyldiethanolamine] + O
313.15 K
Conditions	excess molar enthalpy [kJ/mol]
x1 = 0.1004	-1.41
x1 = 0.1501	-1.8
x1 = 0.1986	-2.07
x1 = 0.2593	-2.27
x1 = 0.3681	-2.31
x1 = 0.4312	-2.24
x1 = 0.4941	-2.07
x1 = 0.593	-1.74
x1 = 0.7778	-1.05
x1 = 0.8203	-0.869

NCCNCCO [N-(2-aminoethyl)ethanolamine] + O
Conditions	excess molar enthalpy [kJ/mol]
298.15 K, x1 = 0.0298	-0.771
298.15 K, x1 = 0.0496	-1.27
298.15 K, x1 = 0.0699	-1.71
298.15 K, x1 = 0.0992	-2.24
298.15 K, x1 = 0.1503	-3
298.15 K, x1 = 0.2015	-3.45
298.15 K, x1 = 0.2962	-3.91
298.15 K, x1 = 0.2982	-3.92
298.15 K, x1 = 0.3484	-4.01
298.15 K, x1 = 0.3994	-3.96
298.15 K, x1 = 0.4454	-3.77
298.15 K, x1 = 0.4962	-3.49
298.15 K, x1 = 0.505	-3.43
298.15 K, x1 = 0.5922	-2.87
298.15 K, x1 = 0.6969	-2.19
298.15 K, x1 = 0.77	-1.71
298.15 K, x1 = 0.9077	-0.779
313.15 K, x1 = 0.0299	-0.936
313.15 K, x1 = 0.0498	-1.32
313.15 K, x1 = 0.0701	-1.72
313.15 K, x1 = 0.1	-2.34
313.15 K, x1 = 0.1495	-3.05
313.15 K, x1 = 0.2002	-3.62
313.15 K, x1 = 0.2956	-4.12
313.15 K, x1 = 0.3547	-4.23
313.15 K, x1 = 0.4001	-4.15
313.15 K, x1 = 0.4461	-3.98
313.15 K, x1 = 0.4893	-3.78
313.15 K, x1 = 0.6009	-3.15
313.15 K, x1 = 0.6723	-2.67
313.15 K, x1 = 0.7961	-1.71
313.15 K, x1 = 0.9041	-0.888
323.15 K, x1 = 0.0301	-0.617
323.15 K, x1 = 0.0498	-1.03
323.15 K, x1 = 0.0697	-1.59
323.15 K, x1 = 0.0992	-2.04
323.15 K, x1 = 0.1491	-2.92
323.15 K, x1 = 0.1988	-3.41
323.15 K, x1 = 0.3014	-3.81
323.15 K, x1 = 0.3527	-3.94
323.15 K, x1 = 0.3958	-3.92
323.15 K, x1 = 0.4971	-3.6
323.15 K, x1 = 0.5908	-3.03
323.15 K, x1 = 0.7056	-2.24
323.15 K, x1 = 0.7484	-1.94
323.15 K, x1 = 0.8999	-0.82

CN(C)CCO [2-(N,N-dimethylamino)ethanol] + O
Conditions	excess molar enthalpy [kJ/mol]
298.15 K, x1 = 0.0299	-0.701
298.15 K, x1 = 0.0705	-1.45
298.15 K, x1 = 0.1008	-1.85
298.15 K, x1 = 0.1501	-2.28
298.15 K, x1 = 0.2052	-2.59
298.15 K, x1 = 0.301	-2.85
298.15 K, x1 = 0.349	-2.9
298.15 K, x1 = 0.4106	-2.89
298.15 K, x1 = 0.4544	-2.82
298.15 K, x1 = 0.5365	-2.58
298.15 K, x1 = 0.6599	-2.01
298.15 K, x1 = 0.7996	-1.25
298.15 K, x1 = 0.9156	-0.557
313.15 K, x1 = 0.0307	-0.701
313.15 K, x1 = 0.0695	-1.31
313.15 K, x1 = 0.1196	-1.92
313.15 K, x1 = 0.2038	-2.44
313.15 K, x1 = 0.2979	-2.73
313.15 K, x1 = 0.349	-2.78
313.15 K, x1 = 0.4063	-2.77
313.15 K, x1 = 0.4925	-2.58
313.15 K, x1 = 0.5885	-2.2
313.15 K, x1 = 0.7046	-1.69
313.15 K, x1 = 0.7891	-1.24
313.15 K, x1 = 0.9076	-0.607
323.15 K, x1 = 0.0301	-0.661
323.15 K, x1 = 0.0705	-1.32
323.15 K, x1 = 0.1217	-1.82
323.15 K, x1 = 0.2027	-2.33
323.15 K, x1 = 0.3001	-2.63
323.15 K, x1 = 0.3486	-2.69
323.15 K, x1 = 0.4001	-2.68
323.15 K, x1 = 0.4995	-2.5
323.15 K, x1 = 0.6093	-2.05
323.15 K, x1 = 0.7618	-1.29
323.15 K, x1 = 0.9197	-0.464
